The subject of assay [1] is DCC expression in panel of 15 cancer cell lines. Particulars: drug at IC10, IC30, IC50 or ICMAX, 24 hours.
Assay [2] relates to Netrin-1 gene expression in A549 lung cancer cell line. Description: Netrin-1 gene expression by quantitative RT-PCR in A549 cells. The class given is cell-based, human. Particulars: 24 hours.
For assay [3], the system named is UNC5D expression in panel of 15 cancer cell lines. Particulars: drug at IC10, IC30, IC50 or ICMAX, 24 hours.
Assay [4] relates to Netrin-1 protein in A549 cells. Nature of the assay: Netrin-1 protein levels by western blotting in A549 cells. The class given is cell-based, human. Particulars: A549, 1 μM and 2 μM Doxorubicin, 48 hours, normalized to β-actin. (In western blotting, separated proteins are transferred to a membrane and probed.)
Protocol: For immunoblot analysis, cells were lysed by sonication in modified RIPA buffer (50 mM Tris-HCl, pH7.5, 150 mM NaCl, 1% NP-40, 0.5% sodium deoxycholate, 0.1% SDS, 1 mM EDTA, protease inhibitor cocktail and 5 mM DTT) and incubated 1 h at 4° C. Cellular debris were pelletted by centrifugation (10.000 g 15′ at 4° C.) and protein extracts (200 μg per lane) were loaded onto 10% SDS-polyacrylamide gels and blotted onto PVDF sheets (Millipore Corporation, Billerica, Mass., U.S.A.). Filters were blocked with 10% non-fat dried milk and 5% BSA in PBS/0.1% Tween 20 (PBS-T) over-night and then incubated for 2 h with rabbit polyclonal α-netrin-1 (dilution 1:500, clone H104, Santa Cruz Biotechnology, Santa Cruz, Calif., USA) and mouse monoclonal β-actin (Santa Cruz Biotechnologies) antibodies. After three washes with PBS-T, filters were incubated with the appropriate HRP-conjugated secondary antibody (1:10000, Jackson ImmunoResearch, Suffolk, UK) for 1 h. Detection was performed using West Dura Chemiluminescence System (Pierce, Rockford, Ill., U.S.A.).
Assay [5] has as its system UNC5B gene expression in A549 cells. Nature of the assay: Netrin-1 receptor gene expression in A549 cells: UNC5B. In kind it is cell-based, human.
The subject of assay [6] is UNC5A gene expression in A549 cells. Nature of the assay: Netrin-1 receptor gene expression in A549 cells: UNC5A. The class given is cell-based, human. Particulars: A549 cells following Doxorubicin treatment.
In assay [7] the test system is A549 cells. Nature of the assay: Cell death rate by ToxiLight bioluminescent cytotoxicity assay in A549 cells. Particulars: 48 hours; for Potentiation of Doxorubicin-induced cell death (toxilight): A549, 2 μg/mL fusion protein plus Doxorubicin.
Protocol: Cell death rate (FIG. 10), measured by toxilight kit as described in materials and methods section, and cell survival (FIG. 11), was evaluated 48 hours after treatment. Results were normalized to control, untreated cells.
A549 cells were transfected with scramble siRNA (siCTRL), netrin-1-specific siRNA (siNet), UNC5B-specific siRNA (siUnc5B) and with a combination of netrin-1 and UNC5B-targeting siRNA. 24 hours after transfection, cells were treated with the indicated Doxorubicin concentrations for 48 hours, and cell death rate was measured by toxilight and normalized to control, untreated cells.
FIGS. 16-17: A549 cells were treated for 48 hours with the indicated Doxorubicin concentrations in presence or not of 2 μg/mL TRAP-netrin^DCC (FIG. 16) and TRAP-netrin^Unc5A (FIG. 17). […] Results were normalized to untreated cells. *, P<0.05; **, P<0.01; ***, P<0.001.
Cell death was evaluated by means of different methods. For total cell death assays, 5*10^3 cells per well were grown in 96-well plate in serum-poor medium and treated with Doxorubicin. 48 hours later, cell death was evaluated using the bioluminescent cytotoxicity assay ToxiLight (Lonza, Basel, Switzerland), according to manufacturer's instruction. […] Cell survival was measured by MTS assay (CellTiter 96 AQueous One Solution Cell Proliferation Assay, Promega) in 96-well plates. MTS assay was performed according to the manufacturer's procedures on 3*10^3 cells grown in serum-poor medium for 16 hours and then treated for 48 hours with the indicated Doxorubicin concentrations in serum-free medium.
The subject of assay [8] is UNC5B expression in panel of 15 cancer cell lines. Particulars: drug at IC10, IC30, IC50 or ICMAX, 24 hours.
The subject of assay [9] is A549 cells. Description: Caspase-3 activity assay in A549 cells. Particulars: A549 transfected with scramble siRNA (siCTRL), Doxorubicin 24 hours. The class given is cell-based, human. How it is done:
(§1) FIGS. 13-14: Netrin-1 silencing triggers apoptosis in combination with Doxorubicin treatment. A549 cells were transfected as in (FIGS. 10-12), and treated with the indicated Doxorubicin concentrations for 24 hours. […] DoxoR, Doxorubicin.

Assay [10] relates to A549 cells engrafted in nude mice. Nature of the assay: A549 xenograft in athymic nude mice, tumor growth. In kind it is in vivo. Particulars: i.p. twice a week for two weeks, TRAP-netrin^UNC5A 20 mg/kg, Doxorubicin 2 mg/kg, alone or combined. The procedure: FIG. 22: Netrin-1 interfering potentiates Doxorubicin anti-cancer effect in a preclinical animal model. A549 cells were engrafted in seven-weeks old female athymic nude mice. Once tumors reached a 100 mm^3-volume, mice were treated intraperitoneally with TRAP-netrin^UNC5A (20 mg/kg), Doxorubicin (2 mg/kg) or with a combination of both drugs, twice a week for two weeks. As a control, mice were injected with PBS. Histogram represents tumor volume growth for each group as a function of days post-xenografts.
Seven-week-old (20-22 g body weight) female athymic nu/nu mice were obtained from Charles River animal facility. The mice were housed in sterilized filter-topped cages and maintained in a pathogen-free animal facility. A549 cells were implanted by s.c. injection of 10^7 cells in 200 μL of PBS into the right flank of the mice. Once tumors were established (V≈100 mm^3), mice were treated with netrin-1 interfering drugs and/or cytotoxic drugs for two weeks. Tumor sizes were measured with a caliper. The tumor volume was calculated with the formula v=0.5*(length*width^2). At the end of the treatment, tumors were harvested, weighted and were embedded in 7.5% gelatin—0.12M sucrose and sectioned into 20 μm slices.
We then assessed whether the in vitro effect seen above could be translated in vivo in a therapeutic perspective. […]

The subject of assay [11] is Netrin-1 gene expression in H460 lung cancer cell line. Nature of the assay: Netrin-1 gene expression by quantitative RT-PCR in H460 cells. Particulars: H460, 2 μM Doxorubicin, 24 hours, normalized with GAPDH, compared to not-treated cells.
Assay [12] has as its system UNC5C gene expression in A549 cells. Description: Netrin-1 receptor gene expression in A549 cells: UNC5C. In kind it is cell-based, human. Particulars: A549 cells following Doxorubicin treatment.
The test system of assay [13] is UNC5D gene expression in A549 cells. Description: Netrin-1 receptor gene expression in A549 cells: UNC5D. The class given is cell-based, human. Particulars: A549 cells following Doxorubicin treatment.
Assay [14] has as its system A549 cells. Nature of the assay: DNA fragmentation in A549 cells. The class given is cell-based, human. Particulars: A549 transfected with scramble siRNA (siCTRL), Doxorubicin 24 hours. The procedure:
as §1

Assay [15] deals with DCC gene expression in A549 cells. Description: Netrin-1 receptor gene expression in A549 cells: DCC. The class given is cell-based, human. Particulars: A549 cells following Doxorubicin treatment.
Assay [16] deals with netrin-1 expressing tumor cells. Description: Death of netrin-1 expressing tumor cells in vitro (not shown). In kind it is cell-based. Particulars: data not shown.
For assay [17], the system named is A549 cells. Description: Cell survival by MTS assay in A549 cells. Particulars: 48 hours. (Tetrazolium assays rely on reduction of a dye to a coloured formazan, in cell work by metabolically active cells.)
Protocol: FIGS. 18-19: A549 cells were treated with PBS or 2 μg/mL TRAP-netrin^Unc5A, in presence of the indicated concentrations of 5-Fluorouracil (5-FU, FIG. 18) or Cisplatin (FIG. 19). 48 hours after co-treatment, cell survival was measured by MTS and normalized to untreated cells. *, P<0.05; **, P<0.01; ***, P<0.001.
Cell survival was measured by MTS assay (CellTiter 96 AQueous One Solution Cell Proliferation Assay, Promega) in 96-well plates.
A further assay relates to MiaPacA cells. Nature of the assay: Cell survival by MTS assay in MiaPacA cells. Particulars: 48 hours. In kind it is cell-based, human.

Numbered stars: 1 amine (or outer) side, 2 acyl side, 3 side chain; on linkers, the order of the positions; unused ones are H or OH. Bridge positions count the residues as written; N and C are the ends. Square brackets hold non-standard residues; d marks the D form. Peptide text beside a SMILES is read from it. I, II: the chains in the order shown. Actinocin(9to1) = Cc1c2oc3c(C)ccc(C(=O)[*:1])c3nc-2c(C(=O)[*:2])c(N)c1=O; NMeV = CN[C@H](C(=O)O)C(C)C; Sar = CNCC(=O)O

In the case of `O=c1[nH]cc(F)c(=O)[nH]1` [5FU, 5-Fluorouracil], in assay [1], the “cell lines with up-regulation of DCC” value is listed as 43%.
`Cc1c2oc3c(C)ccc(C(=O)N[C@@H]4C(=O)N[C@H](C(C)C)C(=O)N5CCC[C@H]5C(=O)N(C)CC(=O)N(C)[C@@H](C(C)C)C(=O)O[C@@H]4C)c3nc-2c(C(=O)N[C@@H]2C(=O)N[C@H](C(C)C)C(=O)N3CCC[C@H]3C(=O)N(C)CC(=O)N(C)[C@@H](C(C)C)C(=O)O[C@@H]2C)c(N)c1=O` [Actinomycin D] (I: T[dV]P[Sar][NMeV] / II: T[dV]P[Sar][NMeV]; ester I:1-I:C, II:1-II:C; linker I:N-II:N via Actinocin(9to1)): the “Effect on Doxorubicin-mediated netrin-1 up-regulation” value in assay [2] (A549, 2 μM Doxorubicin plus Actinomycin D 100 μg/ml) is on record as “fully prevents”.
As to `N.N.[Cl][Pt][Cl]` [Cisplatin], the “cell lines with up-regulation of DCC” value in assay [1] is 36%.
For the molecule `COc1cccc2c1C(=O)c1c(O)c3c(c(O)c1C2=O)C[C@@](O)(C(=O)CO)C[C@@H]3O[C@H]1C[C@H](N)[C@H](O)[C@H](C)O1` [Doxorubicin], in assay [3], the “cell lines with up-regulation of UNC5D” value is 67%. Besides, the Netrin-1 protein levels result in assay [4] is on record as “strongly accumulated”. The UNC5B gene expression result in [5] (A549 cells following Doxorubicin treatment, result in words) was “significantly up-regulated”. Besides, the “UNC5B receptor level increase” value in [5] (A549 cells treated with Doxorubicin) is reported as 44 folds. In assay [6], the UNC5A gene expression result was “significantly up-regulated”. The “Cell death rate and cell survival under Doxorubicin” value in the assay on A549 cells [7] (A549 scramble siRNA-transfected cells, increasing Doxorubicin concentrations) is given as “general resistance”. The “cell lines with up-regulation of UNC5B” value in [8] is reported as 80%. For the same molecule, in the assay with A549 cells [9], the “Apoptosis (active caspase-3)” value is recorded as “failed to induce apoptosis”. In addition, the Tumor growth inhibition entry in [10] is listed as “detectable but weak tumor growth inhibiting effect”. Also, the “netrin-1 mRNA level increase” value in assay [11] was 300 fold; in assay [2] (A549, 2 μM Doxorubicin, normalized with GAPDH, compared to not-treated cells), 430 fold. In assay [12], the UNC5C gene expression result was “non-significant variations”. Further, the UNC5D gene expression result in assay [13] was “non-significant variations”. For the same molecule, in the assay on A549 cells [14], the “Apoptosis (DNA fragmentation)” value is “failed to induce apoptosis”. In assay [1], the “cell lines with up-regulation of DCC” value is on record as 87%. Also, the DCC gene expression result in assay [15] is reported as “significantly up-regulated”.
On to `CC(=O)O[C@H]1C(=O)[C@@]2(C)[C@H]([C@H](OC(=O)c3ccccc3)[C@]3(O)C[C@H](OC(=O)[C@H](O)[C@@H](NC(=O)c4ccccc4)c4ccccc4)C(C)=C1C3(C)C)[C@]1(OC(C)=O)CO[C@@H]1C[C@@H]2O` [Taxol, paclitaxel], for which the “cell lines with up-regulation of DCC” value in assay [1] amounted to 53%.
Consider “TRAP-netrin^UNC5A: two immunoglobin (Ig1-Ig2) domains of the UNC5A ectodomain fused to IgG1 Fc portion; SEQ ID NO: 1”, for which the “Death of netrin-1 expressing tumor cells in vitro” value in assay [16] is recorded as “trigger death of netrin-1 expressing tumor cells”. The “Potentiation of Doxorubicin-induced cell death (toxilight)” value in the assay on A549 cells [7] is “strongly potentiate”. Besides, the “Potentiating effect on cell death, co-treatment with 5FU (cell survival by MTS)” value in the assay with A549 cells [17] (A549, 2 μg/mL fusion protein plus 5FU) is listed as “Comparable potentiating effect on cell death”. Besides, the “Potentiating effect on cell death, co-treatment with Cisplatin (cell survival by MTS)” value in the assay on A549 cells [17] (A549, 2 μg/mL fusion protein plus Cisplatin) is given as “Comparable potentiating effect on cell death”. Also, the Tumor growth inhibition entry in assay [10] is “detectable but weak tumor growth inhibiting effect”. For the same molecule, the “Cell death, co-treatment with 5FU (cell survival by MTS)” value in the assay with MiaPacA cells (2 μg/mL fusion protein plus 5FU) is given as “potentiated cell death”. Besides, the “Cell death, co-treatment with Doxorubicin (cell survival by MTS)” value in the assay with MiaPacA cells (2 μg/mL fusion protein plus Doxorubicin) is on record as “potentiated cell death”.

B1: TRAP-netric^DCC: fifth fibronectin domain of DCC ectodomain fused to IgG1 Fc portion (protein)
chain: PPVGVQAVALTHDAVRVSWADNSVPKNQKTSEVRLYTVRWRTSFSASAKYKSEDTTSLSYTATGLKPNTMYEFSVMVTKNRRSSTWSMTAHATTYEA
modifications: left off: a dimerising Fc or GST
notes: fifth fibronectin domain of DCC ectodomain fused to IgG1 Fc portion
On to B1, for which the “Death of netrin-1 expressing tumor cells in vitro” value in assay [16] is recorded as “trigger death of netrin-1 expressing tumor cells”. Besides, the “Potentiation of Doxorubicin-induced cell death (toxilight)” value with A549 cells [7] is reported as “strongly potentiate”.

Source of the values: patent US9895439B2, “Combined treatment with netrin-1 interfering drug and chemotherapeutic drug” (NETRIS PHARMA, priority 2012, dated 2018).
